The source of these data is patent publication US20210206763A1, “Anti-Proliferative Agents” (FEMTOGENIX LIMITED, priority 2015, published 2021).

Molecules are shown by their SMILES.

For one test, the system named is MDA-MB-453. Description: In vitro cytotoxicity of free payloads, MTT assay. It counts as cell-based. Conditions: Homo sapiens, 72 hour incubation. As for the experimental part:
(§1) The in vitro cytotoxicity of compounds 73, 76, 81, 88 and 93 were evaluated in the JIMT-1, MCF-7, MDA-MB-453 and SK-BR-3 (all breast cancer) cell lines using the standard MIT assay for a 72 hour incubation period (Table 3).
(§2) Tumor cell lines were maintained in RPMI1640 medium supplemented with 10% heat-inactivated fetal bovine serum, 2 mM L-glutamine and 1 mM sodium pyruvate. 1800 cells per well were seeded in a volume of 180 μl in a 96-well flat bottom polystyrene plate. The cells were allowed to adhere overnight at 37° C. in a CO2 incubator. Ligands were initially formulated in DMSO, and stocks stored at −80° C. They were then further formulated at lox concentration in RPMI1640 medium. 20 ul of diluted samples were added into each treatment well. On each plate, blank wells with no cells, and untreated wells containing cells, were included. Plates were then cultured at 37° C. in a CO2 incubator for 72 hrs. Cytotoxicity was evaluated using a tetrazolium salt-based assay, the MIT assay. After 72 hours, the supernatant was removed from each well and 200 μl of a sterile filtered 500 μg/ml MTT solution in water added to each well. The plates were then incubated at 37° C. in a CO2 incubator for 4 hrs. The supernatant was then removed and the formazan crystals formed solubilized by adding 15(411 of DMSO to each well. The plate was then read on a plate reader at 540 nm, and percentage cell survival calculated as follows: ((mean absorbance treated wells at concentration x−mean absorbance blank wells)÷(mean absorbance untreated wells at concentration x−mean absorbance blank wells))×100. Data were plotted as concentration in nM vs. % cell survival in Microsoft Excel, and IC50 values (concentration where cell survival is reduced by a half) were determined from the graph.

The subject of the next test is MCF-7. Nature of the test: In vitro cytotoxicity of free payloads, MTT assay. Conditions: Homo sapiens, MCF7; 72 hour incubation. The class given is cell-based. The procedure:
as §1, §2
Background: Tetrazolium dyes change colour on reduction, which living cells bring about.

The next test deals with JIMT-1. Description: In vitro cytotoxicity of free payloads, MTT assay. The class given is cell-based. Conditions: Homo sapiens, 72 hour incubation. As for the experimental part:
as §1, §2

A further test has as its system SK-BR-3. Description: In vitro cytotoxicity of free payloads, MTT assay. Conditions: Homo sapiens, 72 hour incubation. It counts as cell-based. As for the experimental part:
as §1, §2

In the next test the test system is HexA DNA fragment. Nature of the test: DNA footprinting. Conditions: overnight incubation of ligand-DNA complexes. The class given is binding. As for the experimental part: (§3) The DNA sequence selectivity profile of selected molecules was investigated using a modification of the previously established DNA footprinting assay ^[32]. Following an overnight incubation of the ligand-DNA complexes, the mixture was mixed with strand separation buffer containing 10 mM EDTA, 10 mM NaOH, 0.1% bromophenol blue, 80% formamide and incubated at 100° C. for 3 min. The mixture was then immediately cooled on ice and run on an 8% denaturing gel. […] 93 (solid black line) also interacts with two further sites. The PBD dimer Talirine (green) illustrates a different binding pattern to 73, 76, 81, 88 and 93. Strong DNA footprints are represented by solid lines and weaker footprints are represented by hatched lines. […] Strong DNA footprints are represented by solid lines, and weaker footprints are represented by hatched lines
(§4) Footprinting reactions were performed as previously described ^[36] using the DNA fragments HexA and HexB, which together contain all 64 symmetrical hexanucleotide sequences^[6], and MS1 that contains all possible […] tetranucleotide sequences ^[38]. The DNA fragments were obtained by cutting the parent plasmids with HindIII and SacI (for HexA and MS1) or EcoRI and PstI (for HexB), and were labelled at the 3′-end of the HindIII or EcoRI sites with [α-^32P]dATP using reverse transcriptase or exo-Klenow fragment. After gel purification, the radiolabelled DNA was dissolved in 10 mM Tris-HCl pH 7.5 containing 0.1 mM EDTA, at a concentration of about 10 c.p.s per μL as determined on a hand held Geiger counter. 1.5 μL of radiolabelled DNA was mixed with 1.5 μL ligand that had been freshly diluted in 10 mM Tris-HCl pH 7.5, containing 10 mM NaCl. The complexes were left to equilibrate for at least 12 hours before digesting with 2 μL DNase I (final concentration about 0.01 units/mL). The reactions were stopped after 1 minute by adding 4 μL of formamide containing 10 mM EDTA and bromophenol blue (0.1% w/v). The samples were then heated at 100° C. for 3 minutes before loading onto 8% denaturing polyacrylamide gels containing 8 M urea. Gels were fixed in 10% acetic acid, transferred to 3MM paper, dried and exposed to a phosphor screen overnight, before analysing with a Typhoon phosphorimager

Another test concerns MS1 DNA fragment. Nature of the test: DNA footprinting. Conditions: overnight incubation of ligand-DNA complexes. The class given is binding. As for the experimental part:
as §3, §4

`COc1cc2c(cc1OCCCC(=O)Nc1cc(C(=O)Nc3ccc(-c4cc(C(=O)Nc5ccccc5)n(C)c4)cc3)n(C)c1)N=C[C@@H]1CCCCN1C2=O` [Compound 73, (S)-4-(4-((2-Methoxy-12-oxo-6a,7,8,9,10,12-hexahydrobenzo[e]pyrido[1,2-a][1,4]diazepin-3-yl)oxy)butanamido)-1-methyl-N-(4-(1-methyl-5-(phenylcarbamoyl)-1H-pyrrol-3-yl)phenyl)-1H-pyrrole-2-carboxamide]: the IC50 in the test on MDA-MB-453 was found to be 0.2 nM; with MCF-7 it was 0.42 nM; with JIMT-1, 0.33 nM; with SK-BR-3, 0.27 nM. Also, the “number of preferred binding sites observed in HexA” value (from here on “number … in HexA”) in the test with HexA DNA fragment was “five”. For the same compound, the “number of preferred binding sites observed in MS1” value (from here on “number … in MS1”) with MS1 DNA fragment is “six”.
As to `COc1cc2c(cc1OCCCC(=O)Nc1cc(C(=O)Nc3ccc(-c4cc(C(=O)Nc5ccc(C)cc5)n(C)c4)cc3)n(C)c1)N=C[C@@H]1CCCCN1C2=O` [Compound 76, (S)-4-(4-((2-Methoxy-12-oxo-6a,7,8,9,10,12-hexahydrobenzo[e]pyrido[1,2-a][1,4]diazepin-3-yl)oxy)butanamido)-1-methyl-N-(4-(1-methyl-5-(p-tolylcarbamoyl)-1H-pyrrol-3-yl)phenyl)-1H-pyrrole-2-carboxamide], the half-maximal inhibitory concentration (IC50) in the test on MDA-MB-453 was determined as 0.19 nM; in the test with MCF-7 it was 0.53 nM; in the test on JIMT-1 it was 0.43 nM; with SK-BR-3 it was 0.29 nM. For the same compound, the “number … in HexA” value in the test with HexA DNA fragment was “five”. The “number … in MS1” value in the test with MS1 DNA fragment was “six”.
Regarding `COC(=O)c1ccc(NC(=O)c2cc(-c3ccc(NC(=O)c4cc(NC(=O)CCCOc5cc6c(cc5OC)C(=O)N5CCCC[C@H]5C=N6)cn4C)cc3)cn2C)cc1` [Compound 81, Methyl (S)-4-(4-(4-(4-(4-((2-methoxy-12-oxo-6a,7,8,9,10,12-hexahydrobenzo[e]pyrido[1,2-a][1,4]diazepin-3-yl)oxy)butanamido)-1-methyl-1H-pyrrole-2-carboxamido)phenyl)-1-methyl-1H-pyrrole-2-carboxamido)benzoate], the IC50 in the test on MDA-MB-453 stood at 0.42 nM; in the test with MCF-7, 1.4 nM; in the test with JIMT-1, 0.5 nM; in the test on SK-BR-3, 0.33 nM. In the test on HexA DNA fragment, the “number … in HexA” value is listed as “five”. For the same compound, in the test with MS1 DNA fragment, the “number … in MS1” value was “six”.
Take `COc1cc2c(cc1OCCCC(=O)Nc1cc(C(=O)Nc3ccc(-c4cn(C)c(C(=O)Nc5ccccc5)n4)cc3)n(C)c1)N=C[C@@H]1CCCCN1C2=O` [Compound 88, (S)-4-(4-(4-(4-((2-Methoxy-12-oxo-6a,7,8,9,10,12-hexahydrobenzo[e]pyrido[1,2-a][1,4]diazepin-3-yl)oxy)butanamido)-1-methyl-1H-pyrrole-2-carboxamido)phenyl)-1-methyl-N-phenyl-1H-imidazole-2-carboxamide]: the IC50 in the test on MDA-MB-453 was 0.13 nM; in the test on MCF-7, 0.6 nM; in the test on JIMT-1, 0.37 nM; in the test with SK-BR-3, 0.06 nM. Besides, the “number … in HexA” value in the test with HexA DNA fragment is “five”. Moreover, the “number … in MS1” value in the test with MS1 DNA fragment is “six”.
With `COc1cc2c(cc1OCCCC(=O)Nc1cn(C)c(C(=O)Nc3ccc(-c4cc(C(=O)Nc5ccccc5)n(C)c4)cc3)n1)N=C[C@@H]1CCCCN1C2=O` [Compound 93, (S)-4-(4-((2-Methoxy-12-oxo-6a,7,8,9,10,12-hexahydrobenzo[e]pyrido[1,2-a][1,4]diazepin-3-yl)oxy)butanamido)-1-methyl-N-(4-(1-methyl-5-(phenylcarbamoyl)-1H-pyrrol-3-yl)phenyl)-1H-imidazole-2-carboxamide], the IC50 was 0.18 nM with MDA-MB-453, 2 nM in the test on MCF-7, 0.37 nM with JIMT-1 and 0.09 nM in the test on SK-BR-3. In addition, the “further sequences bound in MS1 not occupied by 73, 76, 81 and 88” value with MS1 DNA fragment is “two”.

What is called IC50 is the concentration that inhibits the measured activity by half. Higher therefore signals lower potency.
